Results taken from US20020049313A1, “Method for introducing foreign material into higher eukaryotic cells” (priority 1994, published 2002).
“Also recorded” adds a separate entry of the source.

Legend:
NF-KB = NF-KB luciferase reporter activation in A549 NF-KB cells; format: cell-based, human; conditions: 11 h, LPS 2.5 μg/ml, PMA 10^−8M
From the text: The plasmid pNF-KB-Luc responding to NF-KB was constructed as a derivative of the plasmid pTK3kbB described by Boehmelt et al., 1992. In order to do this, pTK3kbB was cut with XhoI and NcoI in order to remove the majority of the sequence coding for CAT, treated with Klenow enzyme and ligated with a Klenow-treated HindIII/SspI fragment of PRSVL, containing the luciferase sequence (De Wet et al., 1987). This yielded the plasmid p3K-Luc which contains a triple binding site for the transcription factor NF-KB plus the luciferase sequence, driven by a thymidine kinase (TK) TATA box.
(§1) In order to prepare the clonal cell lines, containing the reporter plasmid pNF-KB-Luc or pIL-6-Luc, the human lung cancer cell line A549 (ATCC CCL 185) was used as starting material. The plasmids were co-transfected with the neomycin-phosphotransferase-expression plasmid designated pmuatt (a pUC19 plasmid containing the TKneo-sequence; Grosveld et al., 1982) using the transfectam method (Behr et al., 1989) and selected for cells which are resistant to 400 μg/ml of G418 (Sigma). Clonal derivatives which expressed luciferase after induction by PMA were identified and expanded.
(§2) The luciferase activity was determined as described in WO 93/07283.
(§3) Stable clones of the lung epithelial carcinoma cell line A549 were produced, which contained pNF-KB-luc or pIL-6-luc as reporter gene construct. […]

[1] = test system: IL-6 promoter (NF-IL-6/NF-KB); assay: IL-6 promoter luciferase reporter activation in A549 IL-6 cells; format: cell-based, human; conditions: A549/NF-IL-6 luciferase; 10 h; PMA 10^−8M, virus 10^4 Particle/cell
From the text: The construct described by Matsusaka et al., 1993 was used, which contains the luciferase sequence driven by the IL-6 promoter.
as §1, §2, §3
In order to determine the time sequence of the NF-IL-6-and NF-KB-activation, the cells of the two cell lines which were found in the above quantities in a 24 well plate or 6 well plate were each treated with 10^4 adenovirus dl1014 virus particles per cell (which corresponded to 4×10^8 virus particles for each well of the A549 NF-KB cells or 4×10^9 virus particles for each well of the A549 IL-6 cells). […]

[2] = test system: primary human fibroblasts; assay: Luciferase gene expression after adenovirus-aided transferrinfection of primary human fibroblasts; format: cell-based; conditions: for improvement in gene expression: absence of E1B 19K, dexamethasone 10 μM, ibuprofen 100 μM, 5,8,11-eicosatriynoic acid 30 μM; for Induction (-fold) of luciferase expression: 3 μM dexamethasone, 24 hours after transfection
Experimental: Samples of biotinylated, psoralen/UV-inactivated adenovirus dl1014 (8 μl, 1×10^12 particles/ml) were diluted in 150 μl of HBS and mixed with 1 μg of StpL in […] of HBS for 30 minutes at ambient temperature. Aliquots of 6 μg of plasmid DNA (in the case of mixtures of pCMVL-DNA and another plasmid the ratio was 5:1) were diluted in 100 μl of HBS and then mixed with the adenovirus/StpL solution for 30 minutes at ambient temperature. Finally, a 100 μl aliquot of HBS, containing 5 μg of TfpL, was added to each sample, followed by 30 minutes' incubation at ambient temperature.
After surgical removal, skin biopsies were added to 4° C. DMEM containing 10% heat-inactivated FCS, 2 mM glutamine and gentamycin. The biopsies were carefully cut up in a tissue culture device using forceps and a surgical blade in a laminar air current in sterile 6 cm plastic dishes. Then 3 ml of DMEM, containing 20% FCS, 2 mM glutamine and antibiotics were added and the culture was placed in an incubator at 37° C. After 10 days the medium was replaced by DMEM containing 10% FCS. Then the medium was changed a further 2 times a week. 4 weeks after the start of cultivation the cells which had grown out of the tissue fragments were trypsinised and plated out into new culture dishes for transfection.
as §2
First of all, a series of experiments were carried out intended to establish whether the expression of certain adenovirus genes is capable of intensifying gene expression after transferrinfection. A defined quantity of the luciferase expression plasmid pCMVL (5 μg) was mixed with various plasmid DNA (1 μg in each), incorporated in TfpL/StpL/adenovirus transfection complexes (total volume 500 μl) and applied to primary human fibroblasts (50 μl of complex were applied to 2×10^4 cells per well in a 24-well plate, corresponding to 2.5×10^4 virus particles per cell, the measurements being carried out three times. In FIG. 4 “minus” denotes pSP65; the test DNA is specified in each case). The luciferase activity obtained was measured 48 to 72 hours after transfection. […] The E1 region contains two main gene functions, E1A and E1B. (The E1A products have the effect of separating E2F from the Rb protein and on the other hand they modulate the transcription activity of numerous cellular and adenovirus promoters. The main transcription-transactivator function is contained in the 13S gene product. The 1B gene codes for two main functions: the E1B 55K gene product binds p53 and changes its function. It is assumed that the 19K E1B gene product acts underneath p53 in order to block the apoptotic response).
In order to do this, transfection complexes containing pCMVL plus the plasmid pSP65, or the plasmids which contained the sequence for Bcl-2, E1A or E1B 19K (the quantities of reporter plasmid pCMVL and the relevant test plasmid were 5 μg and 1 μg, respectively, as in the previous Example), with virus particle numbers of 3×10^4 (FIG. 5A), 10^4 (FIG. 5B) or 3×10^3 (FIG. 5C) per cell were applied to primary fibroblasts and the luciferase activity was measured over a period of time. The transfections were carried out as described in the preceding Examples, the cells being given 6, 18 or 60 μl of transfection complex per well, containing 2×10^4 fibroblasts.
(In these experiments, the cells in a well were given 18 μl of transfection complex.) From day 10 onwards, the culture medium was replaced with fresh medium daily; the idea of this procedure was to lower the concentrations of toxins by changing the medium.

In the case of `CCCCCCCCCCCCCC(=O)O[C@@H]1[C@@H](C)[C@@]2(O)[C@@H](C=C(CO)C[C@]3(O)C(=O)C(C)=C[C@@H]23)[C@@H]2C(C)(C)[C@]12OC(C)=O` [PMA, Phorbolmyristylacetate], the “Increase (-fold)” value (NF-KB) is reported as 2.0 (11 h) -fold and the “Increase (-fold)” value [1] is reported as 2.0 (10 h) -fold.
In the case of `CC(C)Cc1ccc(C(C)C(=O)O)cc1` (stereo not drawn) [ibuprofen, Ibuprofen], the “improvement in gene expression” value [2] is reported as “only dexamethasone brings about a substantial improvement”.
In the case of `CCCCCCCCC#CCC#CCC#CCCCC(=O)O` [5,8,11-eicosatriynoic acid], the “improvement in gene expression” value [2] is reported as “only dexamethasone brings about a substantial improvement” and the “effect on gene expression” value ([2]; presence of E1B 19K, dexamethasone 10 μM, 5,8,11-eicosatriynoic acid 30 μM) is reported as “synergistic effect”.
With `C[C@@H]1C[C@H]2[C@@H]3CCC4=CC(=O)C=C[C@]4(C)[C@@]3(F)[C@@H](O)C[C@]2(C)[C@@]1(O)C(=O)CO` [Dexamethasone, dexamethasone] the “Induction (-fold) of luciferase expression” value ([2]; pCMVL/pCMV19K) was 2.71 -fold and the “Induction (-fold) of luciferase expression” value ([2]; pCMVL/pSP65 (absence of pCMV19K)) was 1.65 -fold.
For `CC(=O)Oc1ccccc1C(=O)O` [aspirin, acetylsalicylic acid], the “effect on gene expression (luciferase) over time” value ([2]; 10 μM dexamethasone or 2 mM Aspirin from 2 hours after transfection, with and without E1B 19K) was “increase in gene expression both in the presence and in the absence of E1B 19K; also recorded: less marked than that of dexamethasone” and the “interaction with the E1B 19K gene in increase of gene expression” value ([2]; 10 μM dexamethasone or 2 mM Aspirin, pCMV19K co-transfected) was “synergistic effect”.
